# In patent EP3634580B1, “COMPOSITIONS COMPRISING LACTULOSE FOR MAINTAINING OR IMPROVING GUT HEALTH IN HUMANS” (Fresenius Kabi Austria GmbH, priority 2017, dated 2018):
# What was measured:
# [1] = system: colon microbiota of human origin; experiment: TIM-2 in vitro model of the proximal colon: ammonia production; format: cell-based; details: for ammonia production (in words): daily doses of 2 g, 3 g, 4 g, 5 g, 120 h test period, versus control; for Cumulative ammonia production: mean of n = 2
# Protocol: (§1) Crystalline lactulose was administered daily for 5 days to the TNO Intestinal Model (TIM-2), an in vitro model of the proximal colon. NaOH consumption, short-chain fatty acids (SCFA) production, ammonia production as well as relative abundance of microbiota were analyzed.
# (§2) The substance administered in this study was lactulose crystals (S.C.M. Società Chimica Mugello S.r.l., Vicchio, Italy). Experiments without the addition of lactulose served as negative control.
# (§3) The TNO Intestinal Model (TIM-2) is a dynamic in vitro model of the proximal colon. The TIM-2 system was inoculated with a highly metabolically active colon microbiota of human origin. In the system the following standardized conditions were simulated: body temperature; pH in the lumen of the proximal colon (pH 5.8); delivery of a substrate from the 'ileum' (SIEM; Standardized Ileum Efflux Medium); mixing and transport of the intestinal contents; anaerobiosis; absorption of water and absorption of fermentation products, metabolites and other low molecular weight compounds (via a semipermeable membrane inside the colon model).
# (§4) SIEM simulates material passing the ileocecal valve in humans. It contained the major non-digestible carbohydrates (pectin, xylan, arabinogalactan, amylopectin, starch) found in a normal western diet as well as protein (bactopepton, casein), ox-bile, Tween 80 as well as vitamins and minerals. SIEM was added to the system at a speed of 2.5 mL/h and the speed of the dialysis liquid was 1.5 mL/min. During the experiment, the intestinal contents were mixed continuously by the peristaltic movements of the TIM-2 system. In order to simulate the transit of the chime from proximal to distal colon, 25 mL of the lumen was removed every 24 h and discarded.
# (§5) Before performing each experiment, the system was inoculated with a standardized microbiota of human origin. This standardized microbiota was prepared using fecal donations from a group of 4 healthy volunteers (3 females, 1 male, age 38.8 ± 3.9 years; BMI (body mass index) 24.2 ± 1.5 kg/m^2). Individuals provided signed informed consent before participation, were non-smokers and had not used antibiotics, prebiotics, probiotics or laxatives within 1 month before the stool donation.
# (§6) At the start of the adaptation period the microbiota was allowed to adapt to the model conditions and SIEM for 16 h. After the adaptation period the 120 h test period started in which lactulose was added to TIM-2 once daily.
# (§7) Lactulose was added to the system at daily doses of 2 g, 3 g, 4 g, and 5 g lactulose. Each dose as well as the control experiment was studied in duplicate (n = 2). The test period of the TIM-2 experiments lasted 120 h (5 consecutive days).
# Metabolites like the short-chain fatty acids (SCFA) and ammonia produced in TIM-2 were continuously removed from the lumen by a semipermeable membrane unit. This dialysate was collected at the start of the test period and after 24, 48, 72, 96, and 120 h.
# Samples for ammonia analysis were centrifuged as described above. Ammonia was determined based on the Berthelot reaction.
# Lactobacillus = experiment: TIM-2 microbiota composition by V4 16S rDNA amplicon sequencing; format: cell-based, human; details: for Average number of the bacterial genus Lactobacillus: after 120 h of exposure in TIM-2, control 82
# Protocol: as §1, §2, §3, §4, §5, §6, §7
# (§8) At the beginning and end of the experiment (t = 0 h and t = 120 h) luminal samples were used to investigate the composition of the microbiota. The samples were snap frozen in liquid nitrogen and stored at ≤ -72 °C until analysis.
# (§9) The bacterial population in the TIM-2 samples was analyzed using Next Generation sequencing. Total DNA from the collected TIM-2 lumen samples at the start (t = 0 h) and at the end (t = 120 h) of the experiments was isolated. To determine the recovery of bacterial DNA from the samples, a quantitative polymerase chain reaction (qPCR) using primers specific for the bacterial 16S rRNA gene was used. Changes in the microbiota composition were analyzed by using mass V4 16S rDNA amplicon sequencing. Processing of the sequencing data was done using the Mothur pipeline.
# Bifidobacterium = experiment: as above; format: cell-based, human; details: for Average number of the bacterial genus Bifidobacterium: after 120 h of exposure in TIM-2, control 28,345
# Protocol: as §1, §2, §3, §4, §5, §6, §7, §8, §9
# [2] = system: colon microbiota of human origin; experiment: TNO Intestinal Model (TIM-2), in vitro model of the proximal colon: sodium hydroxide consumption; format: cell-based; details: for Cumulative sodium hydroxide consumption: mean of n = 2
# Protocol: as §1, §2, §3, §4, §5, §6, §7
# The pH was kept at a value of 5.8 by automatic titration with 2 M NaOH, the consumption of NaOH was monitored.
# [3] = after 120 h in TIM-2, versus control
compound,measurement,setting,value
"OC[C@H]1O[C@@H](O[C@@H]2[C@@H](CO)OC(O)(CO)[C@H]2O)[C@H](O)[C@@H](O)[C@H]1O (mixture of isomers) [Lactulose, lactulose]",ammonia production (in words),[1],decreased the levels
same,ammonia production (in words),[1]; listed as lactulose,decreased mean ammonia production
same,Cumulative ammonia production,"[1]; lactulose 2 g daily, 0 h, control 0",0 mmol
same,Cumulative ammonia production,"[1]; lactulose 2 g daily, 24 h, control 10",9 mmol
same,Cumulative ammonia production,"[1]; lactulose 2 g daily, 48 h, control 31",29 mmol
same,Cumulative ammonia production,"[1]; lactulose 2 g daily, 72 h, control 55",48 mmol
same,Cumulative ammonia production,"[1]; lactulose 2 g daily, 96 h, control 82",68 mmol
same,Cumulative ammonia production,"[1]; lactulose 2 g daily, 120 h, control 108",88 mmol
same,Cumulative ammonia production,"[1]; lactulose 3 g daily, 0 h, control 0",0 mmol
same,Cumulative ammonia production,"[1]; lactulose 3 g daily, 24 h, control 10",9 mmol
same,Cumulative ammonia production,"[1]; lactulose 3 g daily, 48 h, control 31",26 mmol
same,Cumulative ammonia production,"[1]; lactulose 3 g daily, 72 h, control 55",45 mmol
same,Cumulative ammonia production,"[1]; lactulose 3 g daily, 96 h, control 82",64 mmol
same,Cumulative ammonia production,"[1]; lactulose 3 g daily, 120 h, control 108",85 mmol
same,Cumulative ammonia production,"[1]; lactulose 4 g daily, 0 h, control 0",0 mmol
same,Cumulative ammonia production,"[1]; lactulose 4 g daily, 24 h, control 10",6 mmol
same,Cumulative ammonia production,"[1]; lactulose 4 g daily, 48 h, control 31",15 mmol
same,Cumulative ammonia production,"[1]; lactulose 4 g daily, 72 h, control 55",25 mmol
same,Cumulative ammonia production,"[1]; lactulose 4 g daily, 96 h, control 82",38 mmol
same,Cumulative ammonia production,"[1]; lactulose 4 g daily, 120 h, control 108",51 mmol
same,Cumulative ammonia production,"[1]; lactulose 5 g daily, 0 h, control 0",0 mmol
same,Cumulative ammonia production,"[1]; lactulose 5 g daily, 24 h, control 10",5 mmol
same,Cumulative ammonia production,"[1]; lactulose 5 g daily, 48 h, control 31",12 mmol
same,Cumulative ammonia production,"[1]; lactulose 5 g daily, 72 h, control 55",22 mmol
same,Cumulative ammonia production,"[1]; lactulose 5 g daily, 96 h, control 82",32 mmol
same,Cumulative ammonia production,"[1]; lactulose 5 g daily, 120 h, control 108",41 mmol
same,abundance of Lactobacillus (in words),Lactobacillus; [3],increased the abundance
same,Average number of the bacterial genus Lactobacillus,Lactobacillus; lactulose 2 g daily,"1,623"
same,Average number of the bacterial genus Lactobacillus,Lactobacillus; lactulose 3 g daily,"1,504"
same,Average number of the bacterial genus Lactobacillus,Lactobacillus; lactulose 4 g daily,"12,047"
same,Average number of the bacterial genus Lactobacillus,Lactobacillus; lactulose 5 g daily,912
same,abundance of Bifidobacterium (in words),Bifidobacterium; [3],increased the abundance
same,Average number of the bacterial genus Bifidobacterium,Bifidobacterium; lactulose 2 g daily,"24,781"
same,Average number of the bacterial genus Bifidobacterium,Bifidobacterium; lactulose 3 g daily,"17,424"
same,Average number of the bacterial genus Bifidobacterium,Bifidobacterium; lactulose 4 g daily,"135,876"
same,Average number of the bacterial genus Bifidobacterium,Bifidobacterium; lactulose 5 g daily,"116,792"
same,use of NaOH (in words),"[2]; daily doses of 2 g, 3 g, 4 g, 5 g, 120 h test period, versus control",dose dependent increased use of NaOH
same,Cumulative sodium hydroxide consumption,"[2]; lactulose 2 g daily, 0 h, control 19",19 mL
same,Cumulative sodium hydroxide consumption,"[2]; lactulose 2 g daily, 24 h, control 48",58 mL
same,Cumulative sodium hydroxide consumption,"[2]; lactulose 2 g daily, 48 h, control 71",89 mL
same,Cumulative sodium hydroxide consumption,"[2]; lactulose 2 g daily, 72 h, control 90",115 mL
same,Cumulative sodium hydroxide consumption,"[2]; lactulose 2 g daily, 96 h, control 107",139 mL
same,Cumulative sodium hydroxide consumption,"[2]; lactulose 2 g daily, 120 h, control 125",162 mL
same,Cumulative sodium hydroxide consumption,"[2]; lactulose 3 g daily, 0 h, control 19",20 mL
same,Cumulative sodium hydroxide consumption,"[2]; lactulose 3 g daily, 24 h, control 48",65 mL
same,Cumulative sodium hydroxide consumption,"[2]; lactulose 3 g daily, 48 h, control 71",105 mL
same,Cumulative sodium hydroxide consumption,"[2]; lactulose 3 g daily, 72 h, control 90",136 mL
same,Cumulative sodium hydroxide consumption,"[2]; lactulose 3 g daily, 96 h, control 107",169 mL
same,Cumulative sodium hydroxide consumption,"[2]; lactulose 3 g daily, 120 h, control 125",202 mL
same,Cumulative sodium hydroxide consumption,"[2]; lactulose 4 g daily, 0 h, control 19",20 mL
same,Cumulative sodium hydroxide consumption,"[2]; lactulose 4 g daily, 24 h, control 48",72 mL
same,Cumulative sodium hydroxide consumption,"[2]; lactulose 4 g daily, 48 h, control 71",113 mL
same,Cumulative sodium hydroxide consumption,"[2]; lactulose 4 g daily, 72 h, control 90",151 mL
same,Cumulative sodium hydroxide consumption,"[2]; lactulose 4 g daily, 96 h, control 107",185 mL
same,Cumulative sodium hydroxide consumption,"[2]; lactulose 4 g daily, 120 h, control 125",223 mL
same,Cumulative sodium hydroxide consumption,"[2]; lactulose 5 g daily, 0 h, control 19",18 mL
same,Cumulative sodium hydroxide consumption,"[2]; lactulose 5 g daily, 24 h, control 48",69 mL
same,Cumulative sodium hydroxide consumption,"[2]; lactulose 5 g daily, 48 h, control 71",117 mL
same,Cumulative sodium hydroxide consumption,"[2]; lactulose 5 g daily, 72 h, control 90",157 mL
same,Cumulative sodium hydroxide consumption,"[2]; lactulose 5 g daily, 96 h, control 107",193 mL
same,Cumulative sodium hydroxide consumption,"[2]; lactulose 5 g daily, 120 h, control 125",223 mL
